Data reported in patent US9434693B2, “Substituted pyrazoles as N-type calcium channel blockers” (Janssen Pharmaceutica NV, priority 2012, dated 2016).
pIC50: −log10 of the molar value. Read-outs that look alike come from different tables or passages of the source.

Columns and labels:
[1] = biological target: N-type calcium channel (Homo sapiens (Human), UniProt Q00975); assay: Automated electrophysiology assay (QPatch-HT whole-cell patch clamp); assay type: cell-based
Method: Cells were grown in T175 flasks to 50%-90% confluence. At the time of use, cells were enzymatically treated with Detachin (Genlantis, San Diego, Calif. USA), centrifuged, rinsed, and resuspended in 293 SFM II media (Life Technologies, Grand Island, N.Y. U.S.A.) supplemented with 25 mM HEPES (Sigma-Aldrich, St. Louis, Mo. U.S.A.) to a concentration of 2-3×10^6 cells/mL. Cells were added to the automated cell preparation station on the QPatch-HT (Sophion Biosciences, North Brunswick, N.J. U.S.A.), and following a 10- to30-min recovery period with gentle stirring, the assay protocol was initiated. During the automated cell preparation, cells were collected, centrifuged and resuspended in an extracellular (EC) solution containing 132 mM NaCl, 1.8 mM CaCl2, 5.4 mM KCl, 0.8 mM MgCl2, 10 mM glucose, and 10 mM HEPES (pH=7.4), adjusted with sucrose to approximately 315 m0sm. The QPlate was primed with an intracellular solution containing 135 mM CsCl, 10 mM EGTA, 4 MgATP, 0.3 NaGTP, and 20 mM HEPES (pH=7.2), adjusted to approximately 290 m0sm with deionized water and the EC solution. Cells were added to the prepared QPlate wells by robotic pipettes of the QPatch-HT.
For cells determined to be in stable whole-cell patch clamp, the EC solution was replaced with a barium (Ba)/triethylammonium (TEA) solution containing 140 mM TEA-Cl, 10 mM BaCl2, 0.8 mM MgCl2, 10 mM glucose and 10 mM HEPES (pH=7.4). High (40 mM) BaCl2 concentrations were made with adjustments to TEA-Cl (90 mM) to maintain the osmolarity. From a resting potential of −80 mV, a train of depolarizing pulses (15 pulses at 5 Hz, +20 mV) was delivered to the cell once every 30 sec for […], and the resulting currents were measured during a control period (no compound). This protocol was repeated for each subsequent addition of control buffer with or without compound (three periods total, each with four trains). The current generated in the 1st and 15th pulses of the last train of each period in the presence of each drug concentration was normalized to the current generated during the control period at the respective pulses (representing low- and high-frequency stimulation, respectively). Data from both the second and third drug application periods were analyzed for each cell. A final addition of Ba/TEA solution containing 60-100 μM CdCl2 was made to block all N-type current and to “zero” the currents for each cell. All buffer/compound additions were made using a “spitting” feature of the QPatch-HT, which added three repetitions of 5 μL solution at the beginning of each recording period.
To examine closed-state inactivation, cells were subjected to a channel-activating 50-msec depolarizing step pulse from −80 to +10 mV, followed by a 5-sec nonactivating step to voltages ranging from −130 to −60 mV in 10 mV increments and then a 50-ms step from −80 to +10 mV to assess the remaining current. Currents from the activating voltage pulse were normalized to the peak value of the test pulse following the −130 mV step and fit to a Boltzman equation to obtain the V1/2. Roscovitine (Sigma-Aldrich) was prepared as a 100 mM stock in dimethyl sulfoxide and diluted to the indicated working concentrations. […]. Compounds of Formula (I) were diluted first into dimethyl sulfoxide and then into 10% pluronic F-127 in water (Life Technologies), sonicated for 1 min and diluted into EC buffer. Vehicle controls were run in parallel in all experiments.
Unless otherwise indicated, statistics for comparing among electrophysiological results utilized a one-way analysis of variance with Fisher's least squares determination test for pair-wise comparison.

[2] = test system: CFA-induced thermal hyperalgesia; assay: Complete Freund's Adjuvant (CFA)-induced hyperalgesia, radiant heat; assay type: in vivo, Sprague-Dawley rats; details: FIG. 1, numbers not given
[3] = biological target: N-type calcium channel (α1B (Cav2.2), β3 and α2δ subunits) in stable HEK cell line (Homo sapiens (Human), UniProt Q00975); assay: Functional assay (FDSS calcium mobilization): antagonism of N-type calcium channel; assay type: cell-based
Method: A stable cell line (HEK parent) co-expressing the α1B (Cav2.2), β3 and α2δ subunits of the N-type calcium channel subunits was used. These cells were routinely grown as monolayers in low glucose-containing Dulbecco's Modified Eagle Medium supplemented with 10% FBS, 2 mM L-glutamine, 100 I.U./mL penicillin, 100 μg/mL streptomycin, 400 μg/mL G418 and 200 μg/mL Zeocin (split ratio=1:5). Cells were maintained in 5% CO2 at 37° C. Compounds of Formula (I) were prepared as 10 mM stocks in DMSO from neat compound, if available. Otherwise, the 5 or 10 mM DMSO stock solutions provided in-house were used.
Calcium mobilization responses to KCl depolarization were evaluated by measuring the intensity of calcium-mediated fluorescent signal in the presence of BD Calcium Assay Dye (BD Biosciences, Franklin Lakes, N.J., U.S.A.), utilizing a Functional Drug Screening System (FDSS) by Hamamatsu Corporation (Bridgewater, N.J. U.S.A.).
Twenty-four hr prior to assay, cells were seeded in clear-base poly-D-lysine-coated 384-well plates (BD Biosciences) at a density of 5,000 cells per well in culture medium and grown overnight in 5% CO2 at 37° C. On the day of assay, growth media were removed, and cells were loaded with BD calcium assay dye (BD Biosciences) for 35 min at 37° C. under 5% CO2 and then for 25 min at room temp. Utilizing the FDSS, cells were exposed to representative compounds of Formula (I) at varying concentrations, and intracellular calcium was measured for 5 min prior to the addition of 50 mM KCl for an additional 3 min of measurement.
IC50 values for representative compounds of Formula (I) were determined from six-point concentration-response experiments and represent the concentration of said compound required to inhibit 50% of the maximal response. Maximal fluorescence intensity (FI) achieved upon addition of 50 mM KCl was exported from the FDSS software and further analyzed using GraphPad Prism 3.02 (Graph Pad Software Inc., San Diego, Calif., U.S.A.). Data were normalized to the maximum average counts from quadruplicate wells for each condition in the presence of 50 mM KCl and to the minimum average counts in the presence of buffer. Theoretical curves were generated using nonlinear regression curve-fitting analysis of either sigmoidal concentration-response or sigmoidal concentration-response (variable slope), and the IC50 values with the best-fit curve determined by GraphPad Prism were reported.

N-type calcium channel (α1B (Cav2.2), β3 and α2δ subunits) in stable HEK cell line, sequence (Q00975 whole entry): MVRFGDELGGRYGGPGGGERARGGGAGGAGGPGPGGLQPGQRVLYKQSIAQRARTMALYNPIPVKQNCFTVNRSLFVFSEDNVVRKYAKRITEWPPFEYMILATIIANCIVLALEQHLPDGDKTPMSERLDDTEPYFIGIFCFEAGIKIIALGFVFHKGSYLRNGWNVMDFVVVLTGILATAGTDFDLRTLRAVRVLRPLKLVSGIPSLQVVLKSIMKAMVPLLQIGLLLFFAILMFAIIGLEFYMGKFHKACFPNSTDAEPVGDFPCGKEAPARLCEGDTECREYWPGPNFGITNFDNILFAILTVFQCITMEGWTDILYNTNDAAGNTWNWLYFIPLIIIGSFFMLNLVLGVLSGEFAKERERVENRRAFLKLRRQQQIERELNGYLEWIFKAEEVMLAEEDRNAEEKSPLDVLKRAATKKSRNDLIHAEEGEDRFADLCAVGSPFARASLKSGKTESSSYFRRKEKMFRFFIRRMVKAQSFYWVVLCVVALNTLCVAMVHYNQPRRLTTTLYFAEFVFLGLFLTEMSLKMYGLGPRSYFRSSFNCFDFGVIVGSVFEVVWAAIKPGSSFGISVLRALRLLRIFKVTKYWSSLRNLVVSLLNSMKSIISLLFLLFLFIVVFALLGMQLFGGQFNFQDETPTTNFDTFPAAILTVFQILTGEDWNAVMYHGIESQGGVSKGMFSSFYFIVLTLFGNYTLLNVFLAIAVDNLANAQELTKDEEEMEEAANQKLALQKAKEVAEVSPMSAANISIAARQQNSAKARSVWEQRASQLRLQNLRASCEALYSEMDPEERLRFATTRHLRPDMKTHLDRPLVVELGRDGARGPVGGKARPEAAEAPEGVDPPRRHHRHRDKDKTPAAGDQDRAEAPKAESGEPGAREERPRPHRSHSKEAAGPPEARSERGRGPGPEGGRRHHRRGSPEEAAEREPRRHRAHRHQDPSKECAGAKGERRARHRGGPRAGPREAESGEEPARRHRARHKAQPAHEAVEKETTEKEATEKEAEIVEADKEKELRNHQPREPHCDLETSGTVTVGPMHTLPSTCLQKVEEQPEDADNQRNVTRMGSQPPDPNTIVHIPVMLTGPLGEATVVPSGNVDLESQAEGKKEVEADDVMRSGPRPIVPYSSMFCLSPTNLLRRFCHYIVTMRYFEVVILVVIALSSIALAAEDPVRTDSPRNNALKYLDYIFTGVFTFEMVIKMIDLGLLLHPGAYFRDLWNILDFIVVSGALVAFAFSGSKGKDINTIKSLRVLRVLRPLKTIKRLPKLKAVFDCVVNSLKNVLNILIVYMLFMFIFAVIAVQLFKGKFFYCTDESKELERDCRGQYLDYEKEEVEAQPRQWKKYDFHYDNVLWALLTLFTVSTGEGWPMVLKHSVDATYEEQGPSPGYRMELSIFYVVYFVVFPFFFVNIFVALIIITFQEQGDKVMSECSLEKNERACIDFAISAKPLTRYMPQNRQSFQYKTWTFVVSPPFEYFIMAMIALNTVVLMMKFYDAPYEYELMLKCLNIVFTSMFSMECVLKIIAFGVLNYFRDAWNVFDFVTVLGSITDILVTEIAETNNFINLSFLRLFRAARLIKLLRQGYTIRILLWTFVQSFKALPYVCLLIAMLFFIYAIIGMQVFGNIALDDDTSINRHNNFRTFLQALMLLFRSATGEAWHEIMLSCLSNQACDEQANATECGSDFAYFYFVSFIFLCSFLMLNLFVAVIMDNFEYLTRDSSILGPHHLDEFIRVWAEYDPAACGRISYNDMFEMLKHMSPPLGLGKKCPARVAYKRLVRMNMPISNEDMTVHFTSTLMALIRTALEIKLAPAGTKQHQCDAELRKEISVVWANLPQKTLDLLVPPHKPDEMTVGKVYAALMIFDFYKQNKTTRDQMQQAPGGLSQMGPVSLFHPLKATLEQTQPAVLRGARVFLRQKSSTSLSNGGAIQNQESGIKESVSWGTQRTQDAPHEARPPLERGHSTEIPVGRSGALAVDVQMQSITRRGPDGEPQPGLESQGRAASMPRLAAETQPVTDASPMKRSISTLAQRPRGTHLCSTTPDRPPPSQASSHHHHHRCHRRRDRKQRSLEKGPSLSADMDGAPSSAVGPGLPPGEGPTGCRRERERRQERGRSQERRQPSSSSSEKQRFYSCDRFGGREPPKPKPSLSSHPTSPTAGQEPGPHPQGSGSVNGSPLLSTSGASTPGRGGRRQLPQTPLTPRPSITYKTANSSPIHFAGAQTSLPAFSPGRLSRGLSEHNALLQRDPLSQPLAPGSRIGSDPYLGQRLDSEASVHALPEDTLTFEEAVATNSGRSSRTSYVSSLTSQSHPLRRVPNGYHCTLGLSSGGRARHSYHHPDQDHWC
N-type calcium channel (α1B (Cav2.2), β3 and α2δ subunits) in stable HEK cell line, sequence (P54284 whole entry partner): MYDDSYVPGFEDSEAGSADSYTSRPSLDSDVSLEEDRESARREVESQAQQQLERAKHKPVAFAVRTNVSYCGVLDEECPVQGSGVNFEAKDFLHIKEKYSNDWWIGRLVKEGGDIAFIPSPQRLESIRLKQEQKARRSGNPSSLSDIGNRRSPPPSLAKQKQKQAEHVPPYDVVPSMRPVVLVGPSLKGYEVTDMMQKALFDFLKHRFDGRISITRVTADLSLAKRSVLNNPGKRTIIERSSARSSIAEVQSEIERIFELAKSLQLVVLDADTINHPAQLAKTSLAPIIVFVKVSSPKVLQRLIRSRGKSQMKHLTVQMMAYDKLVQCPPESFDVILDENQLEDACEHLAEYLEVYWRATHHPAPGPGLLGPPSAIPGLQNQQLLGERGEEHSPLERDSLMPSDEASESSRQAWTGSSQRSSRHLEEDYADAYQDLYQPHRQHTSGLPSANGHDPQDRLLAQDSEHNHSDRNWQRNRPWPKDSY
N-type calcium channel (α1B (Cav2.2), β3 and α2δ subunits) in stable HEK cell line, sequence (P54289 25-1103 partner): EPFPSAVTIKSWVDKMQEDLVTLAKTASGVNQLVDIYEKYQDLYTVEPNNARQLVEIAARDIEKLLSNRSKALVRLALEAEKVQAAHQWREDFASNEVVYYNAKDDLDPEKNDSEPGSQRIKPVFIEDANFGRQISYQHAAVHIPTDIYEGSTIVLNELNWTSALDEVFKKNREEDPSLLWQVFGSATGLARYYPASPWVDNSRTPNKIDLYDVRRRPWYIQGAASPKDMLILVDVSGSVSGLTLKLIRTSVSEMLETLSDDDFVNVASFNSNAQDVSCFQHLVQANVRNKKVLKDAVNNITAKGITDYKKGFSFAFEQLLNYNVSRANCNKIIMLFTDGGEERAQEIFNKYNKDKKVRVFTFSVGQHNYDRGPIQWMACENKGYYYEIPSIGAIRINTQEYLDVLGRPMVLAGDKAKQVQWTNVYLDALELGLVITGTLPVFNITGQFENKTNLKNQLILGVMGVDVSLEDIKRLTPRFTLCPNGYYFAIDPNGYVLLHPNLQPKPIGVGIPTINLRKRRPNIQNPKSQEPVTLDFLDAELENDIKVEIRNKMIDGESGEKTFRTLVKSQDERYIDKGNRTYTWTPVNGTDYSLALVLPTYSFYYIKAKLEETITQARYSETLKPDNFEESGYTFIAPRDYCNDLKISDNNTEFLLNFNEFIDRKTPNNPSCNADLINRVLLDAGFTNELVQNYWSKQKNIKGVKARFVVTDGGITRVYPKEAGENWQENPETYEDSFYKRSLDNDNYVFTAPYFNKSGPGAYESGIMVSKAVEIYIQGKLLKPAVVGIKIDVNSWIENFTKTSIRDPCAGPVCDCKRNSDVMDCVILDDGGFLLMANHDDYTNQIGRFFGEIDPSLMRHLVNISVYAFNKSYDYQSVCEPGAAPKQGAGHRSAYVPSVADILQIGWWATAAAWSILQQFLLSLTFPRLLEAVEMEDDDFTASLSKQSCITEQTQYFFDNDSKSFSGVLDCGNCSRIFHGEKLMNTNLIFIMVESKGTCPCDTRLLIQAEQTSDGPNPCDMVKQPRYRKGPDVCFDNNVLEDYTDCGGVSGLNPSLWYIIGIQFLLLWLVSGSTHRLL
N-type calcium channel, sequence (Q00975 whole entry): as the sequence (Q00975 whole entry) above
N-type calcium channel, sequence (P54284 whole entry partner): as the sequence (P54284 whole entry partner) above
N-type calcium channel, sequence (P54289 25-1103 partner): as the sequence (P54289 25-1103 partner) above

COc1ccccc1-n1nc(OC2CC(C)(C)OC(C)(C)C2)cc1-c1ccc(Cl)cc1 [Compound 23, 5-(4-chlorophenyl)-1-(2-methoxyphenyl)-3-((2,2,6,6-tetramethyltetrahydro-2H-pyran-4-yl)oxy)-1H-pyrazole]
inhibition at 0.1 µM ([1]; high-frequency stimulation (15th pulse of train, 5 Hz), read-out: QPatch at High Frequency % Inhibition at 0.1 μM): 37%
inhibition at 0.1 µM ([1]; low-frequency stimulation (1st pulse of train), read-out: QPatch at Low Frequency % Inhibition at 0.1 μM): 11%
effect in rat CFA radiant heat model of inflammatory pain [2]: antihyperalgesic effect
inhibition at 0.33 µM ([3]; HEK293, FDSS, 0.33 μM compound): 96%
pIC50 ([3]; KCl (50 mM) depolarization, six-point concentration-response): 8.12
